In patent publication US5962434A, “Compounds for stimulating nerve growth” (The Johns Hopkins University School of Medicine, priority 1996, dated 1999):

Molecular target: T1, myelin-associated glycoprotein (MAG) (Rattus norvegicus, UniProt P07722)
T1 sequence (P07722 20-626): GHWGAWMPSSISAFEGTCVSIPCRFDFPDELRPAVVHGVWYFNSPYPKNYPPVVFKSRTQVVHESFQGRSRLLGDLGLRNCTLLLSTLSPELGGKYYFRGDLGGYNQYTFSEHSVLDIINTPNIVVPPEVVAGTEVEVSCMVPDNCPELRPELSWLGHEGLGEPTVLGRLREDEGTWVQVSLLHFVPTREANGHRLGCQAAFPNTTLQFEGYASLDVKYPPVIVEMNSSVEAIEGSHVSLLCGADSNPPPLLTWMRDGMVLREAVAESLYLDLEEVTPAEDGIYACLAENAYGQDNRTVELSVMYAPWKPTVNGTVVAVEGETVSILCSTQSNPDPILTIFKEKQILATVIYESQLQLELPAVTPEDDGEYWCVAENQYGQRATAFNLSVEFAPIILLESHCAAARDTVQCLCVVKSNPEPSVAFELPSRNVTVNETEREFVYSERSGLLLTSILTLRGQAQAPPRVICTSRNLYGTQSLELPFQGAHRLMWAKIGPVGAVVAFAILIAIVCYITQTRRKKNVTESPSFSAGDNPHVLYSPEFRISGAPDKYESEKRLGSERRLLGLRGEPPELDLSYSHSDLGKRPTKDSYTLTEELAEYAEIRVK
Test: Adherence of MAG-transfected COS cells to microwell surfaces on which gangliosides/glycolipids were adsorbed (LDH activity)
Details: for support of MAG-mediated cell adhesion: structure-function comparison, FIGS. 1C and 2; for adhesion of MAG-transfected cells after neuraminidase treatment of the absorbed ganglioside: Vibrio cholerae neuraminidase-treated microwells; for MAG-transfected COS cells added that adhered: ganglioside-absorbed wells

| Substance | binding compared to GM1b | support of MAG-mediated cell adhesion | adhesion of MAG-transfected cells after neuraminidase treatment of the absorbed ganglioside | MAG-transfected COS cells added that adhered | potency at supporting MAG-mediated cell adhesion relative to GT1b (more potent than GT1b, FIGS. 2 and 3) [fold] | adherence of MAG-transfected COS cells to ganglioside-absorbed surface (artificial membrane monolayer with phosphatidylcholine and cholesterol, FIG. 1B) | adherence of control-transfected COS cells (control-transfected COS cells, FIG. 1B) | adhesion of MAG-transfected cells to control-treated microwells (control-treated (no neuraminidase) microwells, FIG. 1D) |
| --- | --- | --- | --- | --- | --- | --- | --- | --- |
| NeuAc α2,3 Gal β1,3 GalNAc β1,4(NeuAc α2,3)Gal β1, 4Glcβ1,1'Ceramide [GD1a] | enhanced binding | supported MAG-mediated cell adhesion |  |  |  |  |  |  |
| NeuAc α2,3 Gal β1,3(NeuAc α2,6) GalNAc β1,4(NeuAc α2,8 NeuAc α2,3)Gal β1,4Glc β1,1'Ceramide [GQ1bα] |  |  | completely blocked | 70-80% | 8 |  |  |  |
| NeuAc α2,3 Gal β1,3GalNAc β1,4(NeuAc α2,8 NeuAc α2,3) Gal β1, 4 Glc β1,1'Ceramide [GT1b] | enhanced binding | supported MAG-mediated cell adhesion | did not support adhesion | 30-40% |  | adhered in a concentration-dependent manner | did not bind | supported adhesion |
